This is an account of results in US20220142959A1, “LEUCINE, ACETYL LEUCINE, AND RELATED ANALOGS FOR TREATING DISEASE” (priority 2019, published 2022).

Series [1] concerns rat primary cortical neurons. Kind of series: U18666A-mediated impairment of lysosomal fusion in rat primary cortical neurons. The format is cell-based. Particulars: for CTF-6 and -7 (endosomal-lysosomal fusion) / LC3-II levels: co-treated with U18666A (2 μg/mL) and compound 1 mM. The procedure:
FIG. 18. is a histogram of the ratio of LC3-II normalised to βIII tubulin (expressed as a percentage of untreated (n=1)) in rat primary cortical neurons that were treated with U18666A (2 μg/ml, 24 hr) in the absence or presence of ADLL, ALL, ADL, DLL, LL, DL, and LLE (1 mM, 24 hr).
FIG. 19 is histogram of the ratio of APP-CTFs-6 and -7 normalised to their respective CTFs in untreated cells (expressed as a percentage of untreated (n=1) in rat primary cortical neurons that were treated with U18666A (2 μg/ml, 24 hr) in the absence or presence of ADLL, ALL, ADL, DLL, LL, DL, and LLE (1 mM, 24 hr).
The efficacy of ADLL, ALL, ADL, DLL, LL, DL, and LLE in alleviating the U18666A-mediated impairment of autophagosome-lysosome fusion and endosomal lysosomal fusion was investigated. In this cell-based assay of impaired EAL flux, the reappearance of basal levels of APP CTFs-6 and -7, provided an indication of improved endosomal-lysosomal fusion.
Neurons were co-treated with U18666A (2 μg/mL) along with ADLL, ALL, ADL, DLL, LL, DL, and LLE (1 mM, 24 h).

Series [2] concerns rat primary cortical neurons (NE and NG cultures). Kind of series: Truncated tau and neuronal markers in neuron-enriched and neuron-glia cultures. The format is cell-based. Particulars: for tolerability (levels of synaptophysin and βIII-tubulin vs untreated control): NE and NG cultures, 1 mM, five days (DIV 9-14); for reduction of basal levels of truncated tau: NG cultures at DIV14, 1 mM, five days. The procedure: FIG. 20 is eight Western blots of tau (5E2), synaptophysin and βIII-tubulin in rat primary cortical neurons (neuron-enriched (NE) and neuron-glia (NG) cultures) in the absence and presence of ADLL, ALL, ADL, DLL, LL, DL, and LLE (1 mM, 5 days).
The efficacy of ADLL, ALL, ADL, DLL, LL, DL, and LLE in reducing truncated tau levels in neuron-glia (NG) cultures was investigated. The results of this study are provided in FIGS. 20-24 One aim of this study was to determine whether ADLL, ALL, ADL, DLL, LL, DL, and LLE conferred intrinsic neuroprotection by sustaining neuronal function under conditions of cellular overgrowth, or whether they acted indirectly through the non-autonomous modulation of glial cells. Irrespective of whether the compounds acted directly or indirectly on neurons, preventing the generation of truncated tau confers beneficial effects to neuronal integrity.
Cultures were treated for five days (DIV 9-14) with 1 mM of ADLL, ALL, ADL, DLL, LL, DL, or LLE, and were subsequently assessed for a number of neuron-specific markers that could provide a readout on neuronal health: βIII-tubulin, full-length tau, truncated tau (antibody 5E2) and synaptophysin. ADLL, ALL, ADL, DLL, LL, DL, and LLE were well-tolerated in NE and NG cultures, as evidenced by consistently equal levels of synaptophysin and βIII-tubulin detected across untreated (control) and drug-treated samples (FIGS. 20, 23, and 24). None of ADLL, ALL, ADL, DLL, LL, DL, and LLE reduced basal levels of truncated tau in NG cultures at DIV14 (FIG. 20 and FIG. 22).

A further series has as its system LC3-II and APP-CTFs. Kind of series: EAL flux in NPC1 mice (cerebellum LC3-II and APP-CTFs). The conditions noted are these: treated 3 weeks; for restoring autophagic flux with respect to reducing LC3-II levels: relative to untreated NPC1. The format is in vivo, mouse. From the text: FIG. 14 is a histogram of the ratio of LC3-II expression to βIII-tubulin in the cerebellum of mouse NPC1 brains at 9-12 weeks of age treated with ADLL, ALL, ADL, DLL, LL, DL, LLE, and miglustat (miglu.) for 3 weeks relative to untreated NPC1 cerebellum (n=4, mean±S.E.M).
FIG. 15 is a histogram of the ratio of APP-CTFs: full-length APP expression in the cerebellum of mouse NPC1 brains at 9-12 weeks of age treated with ADLL, ALL, ADL, DLL, LL, DL, LLE, and miglustat (miglu.) for 3 weeks relative to untreated NPC1 cerebellum (n=4, mean±S.E.M).
FIG. 16 is a histogram of the ratio of APP-CTF-6: full-length APP expression in the cerebellum of mouse NPC1 brains at 9-12 weeks of age treated with ADLL, ALL, ADL, DLL, LL, DL, and LLE for 3 weeks relative to untreated NPC1 cerebellum.
FIG. 17 is a histogram of the ratio of APP-CTF-7: full-length APP expression in the cerebellum of mouse NPC1 brains at 9-12 weeks of age treated with ADLL, ALL, ADL, DLL, LL, DL, and LLE for 3 weeks relative to untreated NPC1 cerebellum (n=4, mean±S.E.M).
The efficacy of ADLL, ALL, ADL, DLL, LL, DL, and LLE in alleviating the impairment of EAL flux in NPC1 mice was investigated. […] Without wishing to be bound by any particular theory, it is possible that ADL and LLE reduced autophagic vacuole (AV) build-up by inhibiting autophagosome formation, possibly through the activation mTORC1. […] Also, acetyl L-leucine (ALL), acetyl D-leucine (ADL) and L-leucine (LL) reduced CTF-7 expression, indicating some improvement in lysosomal proteolysis (FIG. 17).

Series [3] has as its system CD68 positive activated microglia. Kind of series: CD68 positive activated microglia in cerebellum of Npc1−/− mice. The format is in vivo. Particulars: 59 days of age, compared to Npc1−/− UT. From the text:
(§1) FIG. 46 is an image showing cerebellar Purkinje cell loss progressing from anterior to posterior lobes and microglial activation in untreated Npc1^−/− mice and Npc1^−/− mice treated with ADLL, ALL, and ADL. Cerebellums were stained with calbindin-b (Purkinje cells) or CD68 (activated microglia).
FIG. 48 is a scatter graph showing frequency of CD68 positive activated microglia at 59 days of age in untreated Npc1^−/− mice and Npc1^−/− mice treated with ADLL, ALL, and ADL. CD68 cell density was measured in the cerebellum. n=5 animals per group. Mean±SD, *** p<0.0009 (one-way ANOVA).
(§2) The combination of increased survival of neurons and a less inflammatory environment in the brain could improve brain function, quality of life, and delay the progression of disease in human subjects.

The test system of series [4] is cerebellar Purkinje cells. Kind of series: Purkinje cell survival in Npc1−/− mice. The format is in vivo.
Text: as §1
FIG. 47 is a scatter graph showing Purkinje cell survival at 59 days of age in untreated Npc1^−/− mice and Npc1^−/− mice treated with ADLL, ALL, and ADL.
as §2

The subject of series [5] is traumatic brain injury patient. Kind of series: Case report: patient with traumatic brain injury given acetyl-DL-leucine. Particulars: TBI patient. The format is in vivo, human. The procedure:
A patient suffering from traumatic brain injury was administered acetyl-DL-leucine at a dose of 3 g per day for the first week, followed by a dose of 5 g per day.

The subject of series [6] is patients with Niemann-Pick Type C (NPC). Particulars: one-month study, 12 patients; cited from earlier work.
A further series concerns LC3-II. Particulars: WO 2018/029658; cited from earlier work.
In series [7] the test system is patients with cerebellar ataxia. Particulars: cited from earlier work.
The next series concerns patients with ataxia. Particulars: in responders; cited from earlier work.
The mark [8] stands for this setting: 59 days of age, relative to untreated Npc1−/− littermates.

Regarding `CC(C)CC(N)C(=O)O` (racemic) [DLL, DL-leucine], the “CTF-6 and -7 (endosomal-lysosomal fusion)” value in [1] (24 h) is “reappearance of basal amounts”. In [2], the “tolerability (levels of synaptophysin and βIII-tubulin vs untreated control)” value was “well-tolerated”; the “reduction of basal levels of truncated tau” value (“reduction … of truncated tau” below) is reported as “None”.

As for `CC(C)C[C@H](N)C(=O)O` [LL, L-leucine], the “CTF-6 and -7 (endosomal-lysosomal fusion)” value in series [1] (24 h) is given as “reappearance of basal amounts”. In addition, in the series on LC3-II and APP-CTFs, the CTF-6 accumulation entry is listed as “did reduce” and the “CTF-7 expression / clearance” value was “reduced”. In series [2], the “tolerability (levels of synaptophysin and βIII-tubulin vs untreated control)” value is listed as “well-tolerated”; the “reduction … of truncated tau” value is “None”.

Regarding `CC(=O)N[C@H](CC(C)C)C(=O)O` [ADL, acetyl-D-leucine], the “impact on frequency of CD68 positive activated microglia” value in series [3] is “did not have an impact”. Also, in [1] (24 h), the “CTF-6 and -7 (endosomal-lysosomal fusion)” value was “reappearance of basal amounts”; the LC3-II levels result is recorded as “lower than the basal levels”. Also, the “CTF-7 expression / clearance” value with LC3-II and APP-CTFs is reported as “reduced”. In series [4] (59 days of age, compared to Npc1−/− UT), the “Purkinje cell survival in any cerebellar lobules” value was “did not improve”. Further, in series [4] (Npc1−/− mice), the long-term neuroprotective effects result was “did not mediate any”. Besides, in series [2], the “tolerability (levels of synaptophysin and βIII-tubulin vs untreated control)” value is “well-tolerated”; the “reduction … of truncated tau” value is listed as “None”.

Regarding `CCOC(=O)[C@@H](N)CC(C)C` [LLE, L-leucine ethyl ester], in [1] (24 h), the “CTF-6 and -7 (endosomal-lysosomal fusion)” value was “reappearance of basal amounts”. Moreover, in the series on LC3-II and APP-CTFs, the “reduction in APP-CTFs, particularly CTF-6 and -7” value is given as “not accompanied by a concomitant reduction”; the “restoring autophagic flux with respect to reducing LC3-II levels” value was “effective in restoring autophagic flux”. Besides, in [2], the “tolerability (levels of synaptophysin and βIII-tubulin vs untreated control)” value is “well-tolerated”; the “reduction … of truncated tau” value is reported as “None”.

For the molecule `CC(=O)NC(CC(C)C)C(=O)O` (racemic) [ADLL, acetyl-DL-leucine], the “impact on frequency of CD68 positive activated microglia” value in series [3] is given as “did not have an impact”. The “behaviour / level of activity after treatment” value in series [5] (3 g per day first week, then 5 g per day) is on record as “more active behaviour”. Besides, the “level of activity after medication was stopped” value in series [5] (medication stopped) is recorded as “returned to its original level”. Besides, the “ataxia symptoms in NPC patients” value in series [6] was “symptomatic improvement of ataxia”. In addition, the “LC3-II in NPC1 mouse brain” value with LC3-II is on record as “lowering of LC3-II”. Moreover, in series [7] (cerebellar patients), the “benefit, another case series (Pelz et al. 2015)” value was “did not find benefit” and the “cerebellar ataxia symptoms, case series (Strupp et al. 2013)” value is recorded as “symptomatic improvement”. Moreover, the “temporal gait variability (quantitative gait analysis)” value in series [7] (patients with cerebellar ataxia) is given as “improved”. Further, in series [1] (24 h), the “CTF-6 and -7 (endosomal-lysosomal fusion)” value is “reappearance of basal amounts”; the LC3-II levels result is reported as “lower than the basal levels”. Moreover, in the series with LC3-II and APP-CTFs, the “reduction in APP-CTFs, particularly CTF-6 and -7” value is “not accompanied by a concomitant reduction”; the “restoring autophagic flux with respect to reducing LC3-II levels” value was “effective in restoring autophagic flux”. In addition, in series [4] (setting [8]), the “more Purkinje cells in lobule III” value was 402%; the “more Purkinje cells present in lobules I and II” value is on record as 133%. In series [2], the “tolerability (levels of synaptophysin and βIII-tubulin vs untreated control)” value was “well-tolerated”; the “reduction … of truncated tau” value is “None”. The “metabolism in the midbrain and lower brainstem (PET)” value with patients with ataxia is “increased metabolism”.

Turning to `CCN(CC)CCO[C@H]1CC[C@@]2(C)C(=CC[C@@H]3[C@@H]2CC[C@]2(C)C(=O)CC[C@@H]32)C1` [U18666A, reference compound], in [1] (U18666A alone 2 μg/mL, 24 hr, DIV14), the “CTFs-6 and 7” value is recorded as “complete absence”. Moreover, in series [1] (U18666A alone, 24 h), the LC3-II accumulation result is recorded as “did not cause an increase”.

As to `CC(C)C[C@@H](N)C(=O)O` [DL, D-leucine], the “CTF-6 and -7 (endosomal-lysosomal fusion)” value in series [1] (24 h) was “reappearance of basal amounts”. Moreover, the “CTF-7 expression / clearance” value in the series on LC3-II and APP-CTFs was “positive effects”. In [2], the “tolerability (levels of synaptophysin and βIII-tubulin vs untreated control)” value was “well-tolerated”; the “reduction … of truncated tau” value is reported as “None”.
